This is an account of results in BindingDB's records for patent US12377080 (Dana-Farber Cancer Institute, 2025).

For assay [1], the target named is Epidermal growth factor receptor [L858R] (Homo sapiens, UniProt P00533, L858R). In words: HTRF-Based EGFR Biochemical Assays. As for the experimental part:
(§1) EGFR biochemical activity measurements were carried out using the homogeneous time-resolved fluorescence (HTRF) assay (Cisbio). Inhibitors and DMSO normalizations were first dispensed to empty black low-volume 384-well plates (Corning) with D300 digital liquid dispenser (HP). All reactions were carried out at room temperature and solutions were added to plates with a Multidrop Combi Reagent Dispenser (ThermoFisher). The reaction mixture (10 μL final volume) contained 1 μM tyrosine kinase peptide-biotin substrate and mutant EGFR in a reaction buffer (50 mM HEPES pH 7,0, 5 mM MgCl2,1 mM MnCl2, 0.01% BSA, 2 mM TCEP, 0.1 mM NaVO4). Enzyme concentrations were adjusted to accommodate varying kinase activities (L858R 0.1 nM, L858R!T790M 0,02 nM). Enzyme reaction solution (2× concentrations, 5 μL) was added to 384-well plates containing compounds and incubated for 30 mins. Enzyme reactions were initiated with the addition of […] of ATP to a final concentration of 100 μM and reacted for 20 mins. Reactions were quenched with the addition of 10 μL of phospho-tyrosine antibody-Europium(III) cryptate (1-to-180 volume ratio) and Streptavidin-XL665 (46.7 nM) in EDTA-containing detection buffer, then incubated at room temperature for 1 hour, and read with a PHERAstar plate reader (excitation =337 nm, emission =620 nm and 665 nm).

Assay [2] deals with Epidermal growth factor receptor [T790M,L858R] (Homo sapiens, UniProt P00533, L858R/T790M). In words: HTRF-Based EGFR Biochemical Assays. As for the experimental part:
as §1

Sequence of Epidermal growth factor receptor [T790M,L858R] (P00533 25-1210 T790M/L858R limits assumed): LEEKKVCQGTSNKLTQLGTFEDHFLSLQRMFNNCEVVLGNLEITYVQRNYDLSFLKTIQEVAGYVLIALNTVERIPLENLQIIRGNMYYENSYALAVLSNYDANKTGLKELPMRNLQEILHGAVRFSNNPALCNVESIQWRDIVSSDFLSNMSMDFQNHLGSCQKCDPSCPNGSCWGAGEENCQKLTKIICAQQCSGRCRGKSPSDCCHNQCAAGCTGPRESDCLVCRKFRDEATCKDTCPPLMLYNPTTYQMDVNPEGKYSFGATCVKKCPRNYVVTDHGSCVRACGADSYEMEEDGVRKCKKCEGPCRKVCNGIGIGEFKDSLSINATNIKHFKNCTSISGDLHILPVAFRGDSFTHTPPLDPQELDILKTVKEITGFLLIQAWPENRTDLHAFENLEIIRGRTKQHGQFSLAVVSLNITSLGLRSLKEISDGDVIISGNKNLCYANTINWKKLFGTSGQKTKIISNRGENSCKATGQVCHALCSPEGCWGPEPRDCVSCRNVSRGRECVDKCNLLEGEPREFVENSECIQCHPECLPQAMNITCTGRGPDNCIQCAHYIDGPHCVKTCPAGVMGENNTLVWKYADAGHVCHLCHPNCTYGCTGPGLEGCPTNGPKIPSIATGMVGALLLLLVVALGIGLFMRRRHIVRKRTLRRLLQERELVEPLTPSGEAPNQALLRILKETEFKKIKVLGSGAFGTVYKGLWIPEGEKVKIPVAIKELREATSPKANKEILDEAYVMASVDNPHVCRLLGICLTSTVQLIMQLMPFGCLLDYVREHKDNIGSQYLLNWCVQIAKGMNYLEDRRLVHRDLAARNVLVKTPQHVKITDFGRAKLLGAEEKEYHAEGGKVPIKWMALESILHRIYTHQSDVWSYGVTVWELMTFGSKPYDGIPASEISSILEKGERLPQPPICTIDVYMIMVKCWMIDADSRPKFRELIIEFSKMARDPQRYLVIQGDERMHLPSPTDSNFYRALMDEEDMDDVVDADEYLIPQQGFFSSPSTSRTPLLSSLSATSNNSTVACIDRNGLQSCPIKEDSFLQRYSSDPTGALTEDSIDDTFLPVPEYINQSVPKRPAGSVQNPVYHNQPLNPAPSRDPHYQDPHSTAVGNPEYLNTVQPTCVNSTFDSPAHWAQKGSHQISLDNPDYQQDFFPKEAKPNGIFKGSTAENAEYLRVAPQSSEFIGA
Sequence of Epidermal growth factor receptor [L858R] (P00533 25-1210 L858R limits assumed): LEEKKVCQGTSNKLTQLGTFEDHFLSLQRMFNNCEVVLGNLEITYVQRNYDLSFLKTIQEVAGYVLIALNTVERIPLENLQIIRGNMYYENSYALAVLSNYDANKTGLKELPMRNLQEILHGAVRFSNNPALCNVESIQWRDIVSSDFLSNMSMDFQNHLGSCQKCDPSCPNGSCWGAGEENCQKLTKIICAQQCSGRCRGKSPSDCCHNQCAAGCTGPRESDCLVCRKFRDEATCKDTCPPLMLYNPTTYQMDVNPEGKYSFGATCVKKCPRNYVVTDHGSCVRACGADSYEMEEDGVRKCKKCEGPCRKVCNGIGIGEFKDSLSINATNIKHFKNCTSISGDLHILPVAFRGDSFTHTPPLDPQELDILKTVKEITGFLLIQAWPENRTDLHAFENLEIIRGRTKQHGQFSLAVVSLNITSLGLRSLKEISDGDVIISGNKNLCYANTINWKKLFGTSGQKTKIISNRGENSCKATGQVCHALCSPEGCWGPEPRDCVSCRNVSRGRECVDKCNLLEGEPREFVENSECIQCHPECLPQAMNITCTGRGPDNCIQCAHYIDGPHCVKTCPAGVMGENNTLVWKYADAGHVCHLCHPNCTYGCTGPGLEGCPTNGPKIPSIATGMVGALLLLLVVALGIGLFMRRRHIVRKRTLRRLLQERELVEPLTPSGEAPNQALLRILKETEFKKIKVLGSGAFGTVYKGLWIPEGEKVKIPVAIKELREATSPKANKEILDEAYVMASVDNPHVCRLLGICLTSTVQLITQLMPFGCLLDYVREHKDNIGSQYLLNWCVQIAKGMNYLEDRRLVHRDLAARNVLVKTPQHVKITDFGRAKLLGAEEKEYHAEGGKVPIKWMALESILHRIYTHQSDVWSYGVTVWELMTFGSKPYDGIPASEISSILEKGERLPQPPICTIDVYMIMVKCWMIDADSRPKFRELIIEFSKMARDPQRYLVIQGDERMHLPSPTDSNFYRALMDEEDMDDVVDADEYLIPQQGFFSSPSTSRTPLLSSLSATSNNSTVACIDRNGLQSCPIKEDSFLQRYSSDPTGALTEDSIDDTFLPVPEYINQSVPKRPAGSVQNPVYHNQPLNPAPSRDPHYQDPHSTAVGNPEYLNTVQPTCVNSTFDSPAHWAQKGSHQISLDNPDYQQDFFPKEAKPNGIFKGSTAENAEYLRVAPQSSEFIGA

Regarding `O=C(Nc1ccccn1)C(c1cccc(F)c1)N1Cc2ccc(Br)nc2C1=O` (stereo not given) [US12377080, Compound 5], the IC50 was over 1000 nM in assay [1] and 114 nM in assay [2].

Consider `O=C(Nc1ccccn1)C(c1cccc(F)c1)N1Cc2ncc(Br)cc2C1=O` (stereo not given) [US12377080, Compound 3], for which the half-inhibitory concentration (IC50) was over 1000 nM in assay [1] and 40 nM in assay [2].

Regarding `O=C(Nc1nccs1)C(c1cccc(F)c1)N1Cc2cnc(Br)cc2C1=O` (stereo not given) [US12377080, Compound 1], the IC50 in assay [1] is over 1000 nM; in assay [2] it was 104 nM.

As for `O=C(Nc1nccs1)C(c1cccc(F)c1)N1Cc2ccc(Br)nc2C1=O` (stereo not given) [US12377080, Compound 4], the IC50 in assay [1] was over 1000 nM; in assay [2], 14 nM.

`O=C(Nc1nccs1)C(c1cccc(F)c1)N1Cc2ncc(Br)cc2C1=O` (stereo not given) [US12377080, Compound 2]: the IC50 in assay [1] was found to be 318 nM; in assay [2] it was 15 nM.
